Data on two molecules can be found in patent publication US20090275574A1, “NOVEL COMPOUNDS-300” (ASTRAZENECA AB, priority 2008, published 2009).

As a reminder, the EC50 is the concentration at which the effect is half-maximal.

Holding throughout (format): cell-based
In assay [1] the target is T1, hM1 (human Muscarinic receptor subtype 1) (Homo sapiens, UniProt P11229).
T1 construct: expressed in transfected cells; host or cells: CHO cells (ATCC)
T1 sequence (P11229 1-460): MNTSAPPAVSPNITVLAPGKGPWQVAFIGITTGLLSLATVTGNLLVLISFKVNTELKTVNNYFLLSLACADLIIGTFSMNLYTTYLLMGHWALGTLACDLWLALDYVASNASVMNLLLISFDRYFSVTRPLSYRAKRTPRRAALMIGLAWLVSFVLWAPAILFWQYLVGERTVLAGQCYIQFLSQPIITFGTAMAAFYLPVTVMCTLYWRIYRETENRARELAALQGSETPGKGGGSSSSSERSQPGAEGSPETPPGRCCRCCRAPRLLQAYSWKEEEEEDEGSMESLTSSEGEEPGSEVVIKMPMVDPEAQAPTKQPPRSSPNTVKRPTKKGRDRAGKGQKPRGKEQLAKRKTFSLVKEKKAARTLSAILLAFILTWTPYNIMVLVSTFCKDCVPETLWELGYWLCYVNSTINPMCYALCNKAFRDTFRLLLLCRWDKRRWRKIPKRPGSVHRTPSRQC
The experiment in a line: Human M1 calcium mobilization FLIPR assay. The following applies: hM1 expressed in CHO cells, intracellular Ca2+ release (FLIPR). The method, boiled down: (§1)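 CHO cells expressing human M1, M3 or M5 receptors, dye-loaded 60 min at 37 °C; Ca2+ release read by FLIPR (510-570 nm). M3/M5 inhibition measured against 2 nM acetylcholine added after compound; M1 agonism from maximal RFU, others max minus min. pEC50/pIC50 from sigmoidal fits, 10-point three-fold dilutions.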
(A change in cytosolic calcium serves as a functional read-out for many receptors and channels.)

Assay [2] deals with T2, hM3 (human Muscarinic receptor subtype 3) (Homo sapiens, UniProt P20309).
T2 construct: expressed in transfected cells; host or cells: CHO cells (ATCC)
T2 sequence (P20309 whole entry): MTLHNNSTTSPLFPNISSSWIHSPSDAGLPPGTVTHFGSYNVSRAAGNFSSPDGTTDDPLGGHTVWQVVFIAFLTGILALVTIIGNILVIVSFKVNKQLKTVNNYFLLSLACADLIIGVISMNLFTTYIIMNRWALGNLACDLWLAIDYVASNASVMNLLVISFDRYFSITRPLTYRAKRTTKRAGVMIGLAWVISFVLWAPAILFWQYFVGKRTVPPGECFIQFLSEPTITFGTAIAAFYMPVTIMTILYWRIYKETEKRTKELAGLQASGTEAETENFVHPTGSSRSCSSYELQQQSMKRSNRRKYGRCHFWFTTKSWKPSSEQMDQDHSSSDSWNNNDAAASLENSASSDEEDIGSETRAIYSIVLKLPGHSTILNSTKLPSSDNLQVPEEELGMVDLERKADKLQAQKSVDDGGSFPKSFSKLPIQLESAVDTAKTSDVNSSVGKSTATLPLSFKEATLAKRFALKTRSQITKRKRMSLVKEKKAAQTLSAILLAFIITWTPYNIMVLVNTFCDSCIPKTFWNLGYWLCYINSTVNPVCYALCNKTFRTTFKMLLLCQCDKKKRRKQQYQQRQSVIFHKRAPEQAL
The experiment in a line: Human M3 calcium mobilization FLIPR assay. To be noted: hM3 expressed in CHO cells, intracellular Ca2+ release (FLIPR). In outline: as §1

The target in assay [3] is T3, hM5 (human Muscarinic receptor subtype 5) (Homo sapiens, UniProt P08912).
T3 construct: expressed in transfected cells; host or cells: CHO cells (ATCC)
T3 sequence (P08912 1-532): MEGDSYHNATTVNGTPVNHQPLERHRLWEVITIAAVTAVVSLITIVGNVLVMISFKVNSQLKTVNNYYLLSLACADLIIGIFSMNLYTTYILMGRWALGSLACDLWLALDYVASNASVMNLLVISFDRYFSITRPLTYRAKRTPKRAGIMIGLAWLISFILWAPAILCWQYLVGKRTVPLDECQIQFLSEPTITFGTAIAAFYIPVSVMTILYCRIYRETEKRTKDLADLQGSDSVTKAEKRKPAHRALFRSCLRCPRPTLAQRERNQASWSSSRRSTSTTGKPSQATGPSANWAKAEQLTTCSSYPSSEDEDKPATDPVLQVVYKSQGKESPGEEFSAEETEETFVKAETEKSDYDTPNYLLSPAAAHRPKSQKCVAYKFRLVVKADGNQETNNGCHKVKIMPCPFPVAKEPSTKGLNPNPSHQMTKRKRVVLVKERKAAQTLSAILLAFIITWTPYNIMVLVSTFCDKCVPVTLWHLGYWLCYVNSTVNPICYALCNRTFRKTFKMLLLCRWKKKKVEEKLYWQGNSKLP
In words: Human M5 calcium mobilization FLIPR assay. To be noted: hM5 expressed in CHO cells, intracellular Ca2+ release (FLIPR). On the procedure: Human M1, rat M1, Human M3 and Human M5 Calcium Mobilization FLIPR™ Assay The compound activity in the present invention (EC50 or IC50) is measured using a 384 plate-based imaging assay that monitors drug induced intracellular Ca^2+ release in whole cells. Activation of hM1 (human Muscarinic receptor subtype 1, gene bank access NM_000738), rM1 (rat Muscarinic receptor subtype 1, gene bank access NM_080773), hM3 (human Muscarinic receptor subtype 3, gene bank access NM_000740NM_000740) and hM5 (human Muscarinic receptor subtype 5, gene bank access NM_0121258), receptors expressed in CHO cells (Chinese hamster ovary cells, ATCC) is quantified in a Molecular Devices FLIPR IITM instrument as an increase in fluorescent signal. Inhibition of hM3 and hM5 by compounds is determined by the decrease in fluorescent signal in response to 2 nM acetylcholine activation. […] Prior to experiment, the cell culture medium is removed from the plates by inversion. […] Plates are incubated at 37° C. for 60 minutes prior to start the experiment. The incubation is terminated by washing the cells four times in assay buffer, leaving a residual 25 μl buffer per well. Cell plates are then transferred to the FLIPR, ready for compound additions. The day of experiment, acetylcholine and compounds are diluted in assay buffer in three-fold concentration range (10 points serial dilution) for addition by FLIPR instrument. For all calcium assays, a baseline reading is taken for 10 seconds followed by the addition of 12.5 μl of compounds, resulting in a total well volume of 37.5 μl. Data is collected every second for 60 pictures and then every 6 seconds for 20 pictures prior to the addition of agonist. For hM3 and hM5, before agonist addition, a second baseline reading is taken for 10 seconds followed by the addition of 12.5 μl of agonist or buffer, producing a final volume of 50 μl. After agonist stimulation, the FLIPR continues to collect data every second for 60 pictures and then every 6 seconds for 20 pictures. The fluorescence emission is read using filter 1 (emission 510-570 nm) by the FLIPR on board CCD camera. Calcium mobilization output data are calculated as the maximal relative fluorescence unit (RFU) minus the minimal value for both compound and agonist reading frame (except for hM1 and rM1 using only the maximal RFU). Data are analyzed using sigmoidal fits of a non-linear curve-fitting program (XLfit version 4.2.2 Excel add-in version 4.2.2 build 18 math 1Q version 2.1.2 build 18). All pEC50 and pIC50 values are reported as arithmetic means±standard error of mean of ‘n’ independent experiments.

Turning to `CC(C)OCC1CCC(N2CCC(N3C(=O)CO[C@H]4CCC(F)(F)C[C@@H]43)CC2)CC1` (single isomer, unassigned) [Example 38], the EC50 in assay [1] was 0.018 µM; in assay [2], above 40 µM; in assay [3], above 40 µM.

On to `O=C1CO[C@H]2CCCC[C@@H]2N1C1CCN(C2CCC(COCC(F)F)CC2)CC1` (single isomer, unassigned) [Example 27], for which the values for the EC50 in assay [1], in assay [2] and in assay [3] were 0.0042 µM, above 40 µM and above 40 µM, respectively.
